Bridge positions count the residues as written; N and C are the ends. Peptide text beside a SMILES is read from it. I, II: the chains in the order shown.
Key:
[1] = assay type: biochemical
Method: Small unilamellar vesicles (SUVs) were prepared using PC/PE/PI or PS lipids (5∶2.5∶2.5) containing 15 wt% ergosterol or PC/Cholesterol (10∶1). For the preparation of PC/PE/PI or PS/Erg SUV, the lipids were dissolved in chloroform/methanol (2∶1, v/v) in a glass tube. Ergosterol was dissolved in same solvent and added to lipid mixture to make final ergosterol content of 15 wt%. The Lipid-ergosterol mixture was dried using nitrogen gas to form lipid layer. The film was hydrated in a buffer containing 20 mM PBS (pH 7), vortexed and sonicated. Each cycle of sonication (5 sec, 40°C) was followed by freezing in liquid nitrogen and thawing on a water bath kept at 37°C. The procedure was repeated 5–6 times until an optically clear dispersion appeared. The SUV was divided into two parts. To the first part 50 mM calcein was added and incubated for 1 h. The excess calcein was removed by injecting 100 µL of the calcien-loaded SUV’s into a Ultrahydrogel™ 250 (7.8 mm × 300 mm) column equilibrated with 20 mM PBS (pH 7.0) and eluted isochratically at a flow rate of 1 mL/min for 1.5 column volumes. The calcein-loaded liposomes were mixed with calcein-free liposome (1∶1) to adjust final liposome concentration. Peptide concentration was added to obtain 1∶30 or 1∶15 peptide:liposome ratio. Changes in the fluorescence signal after addition of peptide or Triton X-100 was measured on a PTI spectrofluorometer, using an excitation wavelength of 480 nm and emission wavelength of 512 nm. The Percentage calcein released at each time point was calculated using the equation, [drawing 1]
Where A0 is the observed fluorescence intensity upon addition of peptides, Amin is the average intensity at the baseline (before peptide addition), Amax is the average intensity at the saturation phase after adding 1% Triton X-100. Similar protocol was followed for the preparation of PC/Cholesterol SUVs.

C. albicans ATCC 10231 = assay type: cell-based; conditions: Candida albicans, 6 h, 5.5 µM
Method: For all the experiments, unless otherwise stated, C. albicans ATCC 10231 strain was used. B4010 (1 mg/mL) was incubated with trypsin (enzyme:peptide ratio 1∶100) at 37°C. 20 µL aliquot of this mixture was withdrawn at various time intervals (0.5, 1, 2, 4 and 6 h) and mixed with 1 µL of trypsin inhibitor. The antifungal activity of the peptide was determined by adding this mixture to 180 µL of inoculum and monitoring the growth at OD600 for 24 h. Similar experiments performed in the presence of trypsin/trypsin inhibitor (without B4010) were used as a positive control. For assessing the antifungal activity in TF, the peptide was dissolved in freshly collected rabbit TF and incubated at 37°C for 6 h. After incubation, an equal volume of an overnight culture of C. albicans (∼10^6 CFU/mL) was mixed with peptides in tear fluid and incubated at 37°C for 24 h. The final concentrations of the peptide were at 4.4, 8.8 and 22 µM. A 100 µL aliquot of serial dilutions (10^2 or 10^3 times) of this mixture were inoculated on a SD agar plate and then incubated for 48 h at 37°C. […]
To study the effects of metal ions, the broth solution containing C. albicans (OD600 = 0.4–0.6) was adjusted to appropriate final concentrations of metal ions, incubated with 5.5 µM of B4010 for 6 h and the cell viability was determined as before after 48 h. […]

In the case of `CC(C)[C@H](NC(=O)[C@H](CCCCN)NC(=O)[C@H](CCCNC(=N)N)NC(=O)CNC(=O)[C@@H](N)CCCNC(=N)N)C(=O)N[C@H](C(=O)N[C@@H](CCCNC(=N)N)C(=O)N[C@@H](CCCNC(=N)N)C(=O)NCCCC[C@H](NC(=O)[C@H](CCCNC(=N)N)NC(=O)[C@H](CCCNC(=N)N)NC(=O)[C@@H](NC(=O)[C@@H](NC(=O)[C@H](CCCCN)NC(=O)[C@H](CCCNC(=N)N)NC(=O)CNC(=O)[C@@H](N)CCCNC(=N)N)C(C)C)C(C)C)C(=O)NCCCC[C@H](NC(=O)[C@H](CCCCNC(=O)[C@H](CCCNC(=N)N)NC(=O)[C@H](CCCNC(=N)N)NC(=O)[C@@H](NC(=O)[C@@H](NC(=O)[C@H](CCCCN)NC(=O)[C@H](CCCNC(=N)N)NC(=O)CNC(=O)[C@@H](N)CCCNC(=N)N)C(C)C)C(C)C)NC(=O)[C@H](CCCNC(=N)N)NC(=O)[C@H](CCCNC(=N)N)NC(=O)[C@@H](NC(=O)[C@@H](NC(=O)[C@H](CCCCN)NC(=O)[C@H](CCCNC(=N)N)NC(=O)CNC(=O)[C@@H](N)CCCNC(=N)N)C(C)C)C(C)C)C(=O)N[C@@H](CCCCN)C(=O)O)C(C)C` [B4010] (I: H-RGRKVVRRKKK-OH / II: H-RGRKVVRRK / III: H-RGRKVVRR / IV: H-RGRKVVRR; amide I:9-IV:C, I:10-II:C, II:9-III:C; N-terminus and C-terminus assumed), the “% Calcein released from PC/PE/PS/Erg” value [1] is reported as ~68%, the “dye (calcein) release” value [1] is reported as ~46% and the viable cells (C. albicans ATCC 10231) is reported as 40%.

Reference: PMC3912015, “Synthetic Multivalent Antifungal Peptides Effective against Fungi” (PLoS ONE, 2014)
